Laboratory results taken from patent publication US10828275B2, “Selective targeting of procoagulant platelets” (NewSouth Innovations Pty Limited, priority 2014, dated 2020).
Entries after “also recorded” stand apart in the source; their conditions may differ.

How the values were obtained:
[1] = test system: washed platelets from healthy volunteers; test: Aspirin study: GSAO+/P-selectin+ necrotic platelets ex vivo (flow cytometry); type: cell-based, human; conditions: 100 mg aspirin daily for 7 days; thrombin and collagen
Procedure: (§1) FIG. 8. Aspirin ingestion sensitizes platelets to cyclophilin D inhibition in human subjects. Platelets from healthy volunteers were examined before and after 7 days of aspirin ingestion. Washed platelets were activated with thrombin (0.1 units/mL) and collagen (5 μg/mL) and GSAO+/P-selectin+ necrotic platelets measured by flow cytometry (part A) and procoagulant potential assessed using the Calibrated Automated Thrombogram (part B).
The standard pharmacological means for prevention of cardiovascular events is by inhibiting platelet cyclooxygenase-1 with aspirin, which suppresses platelet activation.
This study was approved by the University of New South Wales Human Research Ethics Advisory Committee (HC132219), conducted according to the Declaration of Helsinki and all volunteers gave written informed consent. Five healthy volunteers aged 25-45 years were recruited. Prior to starting the study, all volunteers abstained from aspirin or non-steroidal anti-inflammatory drugs (NSAIDS), or other anti-platelet therapies for 14 days. Volunteers received 100 mg enteric coated aspirin daily for 7 days. Blood was collected and washed platelets assessed at baseline, day 0, and again at day 7 of treatment.

[2] = test system: agonist stimulated platelets; test: Platelet procoagulant potential, Calibrated Automated Thrombogram; type: cell-based, human; conditions: 100 mg aspirin daily for 7 days; thrombin and collagen
Procedure: FIG. 5. […] A. Washed human platelets were untreated or stimulated with thrombin (0.1 units/mL) and collagen (5 μg/mL) or the mitochondrial membrane disrupter CCCP (4 μM). Mitochondrial transmembrane potential was measured using the cationic dye, JC-1. The ratio of distribution of JC-1 between the mitochondria (red fluorescence) and cytosol (green fluorescence) reflects mitochondrial transmembrane potential. […] B-C. […] E. Washed human platelets were preincubated with CaCl2 for 15 min and then untreated or stimulated with thrombin (0.1 units/mL) and collagen (5 μg/mL).
as §1, with “Aspirin ingestion sensitizes platelets to cyclophilin D inhibition in human subjects.” left out
Thrombin generation capacity of agonist stimulated platelets was measured using the Calibrated Automated Thrombogram as described (Hemker et al., 2003) using the Fluorskan Ascent (Thermo Scientific). Agonist stimulated platelets were washed in phosphate-buffered saline and resuspended into the donor's own platelet poor plasma at 5×10^4/μL and recombinant tissue factor ([…], Innovin, Dade Behring) was added. Assays were performed in triplicate.

[3] = test system: platelets of coronary artery disease patients; test: Whole blood platelet necrosis assay in coronary artery disease patients; type: in vivo, human; conditions: thrombin or thrombin/collagen stimulation
Text: The whole blood platelet necrosis assay was validated by measuring formation of procoagulant platelets in response to well-known agonist in humans and mice. The assay was able to reproducibly measure platelet propensity to necrosis in healthy human volunteers as well as in patients with ischaemic heart disease within a clinical setting.
Experiments using genetically modified mice indicate that formation of procoagulant platelets is dependent on the cyclophilin D necrosis pathway, but independent of the BclXL apoptosis pathway. In healthy volunteers, the strong platelet agonists, thrombin and collagen, induce formation of procoagulant platelets via a mechanism that is largely independent of protease activated receptors. Patients with coronary artery disease have a heightened procoagulant platelet potential and are sensitised to thrombin and ADP stimulation. The procoagulant platelet potential in these patients is insensitive to aspirin, which targets platelet aggregation, but modified by P2Y12 antagonists.
To examine the effect of CAD on procoagulant platelet potential, non-heparinized bloods from patients with exposure to either aspirin only or no antiplatelet medications within 7 days of the procedure were assayed. […] There were no statistically significant differences between the groups in the absence of agonist stimulation.

## CC(=O)Oc1ccccc1C(=O)O [aspirin]
[1]
  change in GSAO+/P-selectin+ necrotic potential of activated platelets: no change
[2]
  change in procoagulant potential of activated platelets: no change
[3]
  effect on necrotic / procoagulant platelet potential in patients: did not affect; also recorded: insensitive
